Data reported in the supplement of paper PMC10307832.

Tests used:
Experiment in all cases: relative viability (nuclei count vs DMSO), 5 days (fraction); higher = more cells survive
Nelarabine + Phenformin = compound: COc1nc(N)nc2c1ncn2[C@@H]1O[C@H](CO)[C@@H](O)[C@@H]1O [Nelarabine] + N=C(N)NC(=N)NCCc1ccccc1 [Phenformin] (partner 250 µM)
In short: (§1)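 Relative viability was taken as the ratio of nuclei in treated wells to nuclei in vehicle wells. Lung cancer cell lines in 1536-well plates received compounds by pin tool one day after seeding, either one drug alone or a fixed anchor-drug dose plus five library-drug doses (not always all listed) in √10 steps. Nuclei were counted on 4× images after 5 days of treatment, and values are medians of duplicate plates.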

Adavosertib = compound: C=CCn1c(=O)c2cnc(Nc3ccc(N4CCN(C)CC4)cc3)nc2n1-c1cccc(C(C)(C)O)n1 [Adavosertib]
In short: (§2)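 Five library-drug doses spaced by √10 were pinned onto vehicle-anchored 1536-well plates of lung cancer cell lines that had been kept overnight at 37 °C. Cells went 5 days without medium change, then were fixed, permeabilised and Hoechst-stained together, imaged at 4× and counted by MetaXpress. Viability is the ratio of treated-well to vehicle-well nuclei, taken as a median over plates. Plates required control CV below 25% and at least one doubling.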

Nelarabine = compound: COc1nc(N)nc2c1ncn2[C@@H]1O[C@H](CO)[C@@H](O)[C@@H]1O [Nelarabine]
In short: as §2

Adavosertib + Navitoclax = compound: C=CCn1c(=O)c2cnc(Nc3ccc(N4CCN(C)CC4)cc3)nc2n1-c1cccc(C(C)(C)O)n1 [Adavosertib] + CC1(C)CCC(c2ccc(Cl)cc2)=C(CN2CCN(c3ccc(C(=O)NS(=O)(=O)c4ccc(N[C@H](CCN5CCOCC5)CSc5ccccc5)c(S(=O)(=O)C(F)(F)F)c4)cc3)CC2)C1 [Navitoclax] (partner 0.5 µM)
In short: as §1

| Cell Line | relative viability (Nelarabine + Phenformin; first compound 0.01 µM) | relative viability (Nelarabine + Phenformin; first compound 0.03162 µM) | relative viability (Nelarabine + Phenformin; first compound 0.1 µM) | relative viability (Nelarabine + Phenformin; first compound 0.3162 µM) | relative viability (Nelarabine + Phenformin; first compound 1 µM) | relative viability (Adavosertib; 0.01 µM) | relative viability (Adavosertib; 0.03162 µM) | relative viability (Adavosertib; 0.1 µM) | relative viability (Adavosertib; 0.3162 µM) | relative viability (Nelarabine; 0.01 µM) | relative viability (Nelarabine; 0.03162 µM) | relative viability (Nelarabine; 0.1 µM) | relative viability (Nelarabine; 0.3162 µM) | relative viability (Nelarabine; 1 µM) | relative viability (Adavosertib + Navitoclax; first compound 0.01 µM) | relative viability (Adavosertib + Navitoclax; first compound 0.03162 µM) | relative viability (Adavosertib + Navitoclax; first compound 0.1 µM) | relative viability (Adavosertib + Navitoclax; first compound 0.3162 µM) |
| --- | --- | --- | --- | --- | --- | --- | --- | --- | --- | --- | --- | --- | --- | --- | --- | --- | --- | --- |
| ABC-1 | 0.216 | 0.212 | 0.258 | 0.231 | 0.229 | 0.885 | 0.893 | 0.948 | 0.96 | 1.1 | 0.911 | 0.988 | 1.11 | 0.943 | – | – | – | – |
| RERF-LC-KJ | 0.436 | 0.427 | 0.403 | 0.403 | 0.425 | 1.01 | 0.971 | 1.02 | 0.994 | 1.18 | 1.09 | 1.06 | 1.07 | 1.02 | 1.01 | 0.751 | 0.828 | 0.952 |
| NCI-H1563 | 0.707 | 0.665 | 0.63 | 0.73 | 0.665 | 0.954 | 0.894 | 0.917 | 1.01 | 1.04 | 1.03 | 0.951 | 0.985 | 0.986 | – | – | – | – |
| A-427 | 0.315 | 0.22 | 0.306 | 0.289 | 0.236 | 1.02 | 1.02 | 1.05 | 0.894 | 1.06 | 1.08 | 1.04 | 1.05 | 0.938 | 0.94 | 0.908 | 0.959 | 0.895 |
| EKVX | 0.22 | 0.234 | 0.231 | 0.22 | 0.232 | 0.975 | 0.967 | 0.955 | 1.1 | 1.09 | 0.898 | 0.857 | 1.09 | 0.968 | 0.927 | 0.929 | 0.944 | 1.2 |
| LOU-NH91 | 0.49 | 0.782 | 0.741 | 0.768 | 0.751 | 0.956 | 0.992 | 0.974 | 0.918 | 0.948 | 0.944 | 0.935 | 1.02 | 0.956 | 0.718 | 0.688 | 0.663 | 0.53 |
| SW 900 | 0.592 | 0.583 | 0.546 | 0.784 | 0.635 | 0.738 | 1.07 | 0.885 | 0.49 | 0.998 | 0.897 | 1.06 | 1 | 0.896 | – | – | – | – |
| 201T | 0.459 | 0.416 | 0.451 | 0.433 | 0.417 | 0.973 | 1.02 | 0.981 | 1.04 | 1.03 | 0.907 | 1.04 | 1.02 | 0.999 | 1.24 | 1.18 | 1.26 | 1.18 |
| NCI-H1793 | 0.45 | 0.366 | 0.315 | 0.472 | 0.406 | 0.787 | 0.835 | 0.885 | 1.09 | 1.09 | 0.775 | 1.1 | 1.09 | 1 | 0.338 | 0.405 | 0.422 | 0.425 |
| Calu-6 | – | – | – | – | – | 1.03 | 1.03 | 1.05 | 0.6 | 1.19 | 1.13 | 1.04 | 1.1 | 1.1 | 0.819 | 0.898 | 0.88 | 0.239 |
| NCI-H650 | 0.505 | 0.425 | 0.46 | 0.457 | 0.461 | 0.896 | 0.972 | 1.03 | 0.859 | 0.942 | 0.996 | 0.962 | 1 | 1.04 | – | – | – | – |
| NCI-H1648 | – | – | – | – | – | 0.907 | 0.847 | 0.838 | 0.71 | 0.713 | 0.929 | 0.776 | 1.11 | 0.881 | – | – | – | – |
| EBC-1 | – | – | – | – | – | 0.974 | 1.02 | 1.07 | 0.971 | 1.19 | 1.14 | 1.05 | 1.01 | 0.975 | 0.416 | 0.413 | 0.448 | 0.205 |
| NCI-H2342 | 0.554 | 0.522 | 0.503 | 0.67 | 0.566 | 1.01 | 1.02 | 0.986 | 0.96 | 1.07 | 0.833 | 1.01 | 0.969 | 0.99 | – | – | – | – |
| LCLC-103H | 0.329 | 0.283 | 0.333 | 0.328 | 0.345 | 1.03 | 0.981 | 0.954 | 0.985 | 1.15 | 1.01 | 1.03 | 1.03 | 1.07 | – | – | – | – |
| NCI-H1299 | – | – | – | – | – | 1.03 | 0.999 | 1.04 | 0.789 | 1.07 | 1.07 | 1.04 | 1.07 | 1.03 | 1.08 | 1.03 | 1.06 | 1.06 |
| NCI-H522 | 0.727 | 0.661 | 0.594 | 0.716 | 0.728 | 1.04 | 0.975 | 1.05 | 1.06 | 1.01 | 0.949 | 1.09 | 0.843 | 1.05 | – | – | – | – |
